Assay results: patent US8080540B2, “Therapeutically active triazoles and their use” (Abbott Products GmbH, priority 2006, dated 2011)

Target: T1, recombinant human 17β-HSD1 (Homo sapiens, UniProt P14061)
T1 construct: made in house; host or cells: Sf9 insect cells (baculovirus, Bac to Bac Expression System); microsomal fraction used
T1 sequence (P14061 1-328): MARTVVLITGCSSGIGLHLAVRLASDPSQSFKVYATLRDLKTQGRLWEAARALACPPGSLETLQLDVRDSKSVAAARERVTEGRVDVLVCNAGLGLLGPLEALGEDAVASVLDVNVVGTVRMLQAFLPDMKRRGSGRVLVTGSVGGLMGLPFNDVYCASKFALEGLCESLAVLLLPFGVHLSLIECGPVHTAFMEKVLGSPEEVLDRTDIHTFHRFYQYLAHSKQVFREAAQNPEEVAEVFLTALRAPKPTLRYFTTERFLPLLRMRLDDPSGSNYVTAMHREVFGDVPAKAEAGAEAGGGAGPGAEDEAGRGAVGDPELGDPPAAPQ
Assay: Inhibition of recombinant human 17β-HSD1 (HPLC assay, conversion of 3H-estrone to estradiol)
Format: biochemical
Settings: 0.5 h, 30 nM 3H-estrone, 1 mM NADPH, 30 min RT, read-out: inhibition of rec. 17 β-HSD1; for inhibition at 0.1 µM: 100 nM inhibitor; for inhibition at 1 µM: 1 μM inhibitor
Description: 17β-HSD1 purification: Recombinant baculovirus was generated by the “Bac to Bac Expression System” (Invitrogen). Recombinant bacmid was transfected to Sf9 insect cells using “Cellfectin Reagent” (Invitrogen). 60 h later cells were harvested; the microsomal fraction was isolated as described by Puranen et al. (1994). Aliquots were stored frozen until determination of enzymatic activity. Assay—Inhibition of recombinant human 17β-HSD1: Recombinant protein (0.1 μg/ml) was incubated in 20 mM KH2PO4 pH 7.4 with 30 nM 3H-estrone and 1 mM NADPH for 30 min at RT, in the presence of potential inhibitors at concentrations of 1 μM or 0.1 μM. Inhibitor stock solutions were prepared in DMSO. Final concentration of DMSO was adjusted to 1% in all samples. The enzyme reaction was stopped by addition of 10% trichloroacetic acid (final concentration). Samples were centrifuged in a microtiter plate at 4000 rpm for 10 min. Supernatants were applied to reverse phase HPLC on a Waters Symmetry C18 column, equipped with a Waters Sentry Guard column. Isocratic HPLC runs were performed at RT at a flow rate of 1 ml/min of acetonitrile:water 48:52 as running solvent. Radioactivity was monitored in the eluate by a Packard Flow Scintillation Analyzer. Total radioactivity for estrone and estradiol were determined in each sample and percent conversion of estrone to estradiol was calculated according to the following formula: [formula] • Percent inhibition was calculated as follows: % inhibition=100−% conversion The values “% inhibition” were determined for exemplified compounds, and the results are summarized in table 4 (for 17β-HSD1).

Compound | inhibition at 0.1 µM [%] | inhibition at 1 µM [%]
C[C@]12CC[C@@H]3c4ccc(O)cc4CC[C@H]3[C@@H]1[C@H](CCn1cc(-c3cc(F)cc(F)c3)nn1)CC2=O [Compound 5, 3-Hydroxy-15β-{2-[4-(3,5-Difluoro-phenyl)-[1,2,3]triazol-1-yl]-ethyl}-estra-1,3,5(10)-trien-17-one] | 87 | 95
C[C@]12CC[C@@H]3c4ccc(O)cc4CC[C@H]3[C@@H]1[C@@H](CCCn1cc(CCc3ccccc3)nn1)CC2=O [Compound 16, 3-Hydroxy-15α-[3-(4-phenethyl-[1,2,3]triazol-1-yl)-propyl]-estra-1,3,5(10)-trien-17-one] | 38 | 89
COc1ccc(-c2cn(CCC[C@H]3CC(=O)[C@@]4(C)CC[C@@H]5c6ccc(O)cc6CC[C@H]5[C@H]34)nn2)cc1 [Compound 20, 3-Hydroxy-15α-{3-[4-(4-methoxy-phenyl)-[1,2,3]triazol-1-yl]-propyl}-estra-1,3,5(10)-trien-17-one] | 51 | 87
Cc1ccc(-c2cn(CCC[C@H]3CC(=O)[C@@]4(C)CC[C@@H]5c6ccc(O)cc6CC[C@H]5[C@H]34)nn2)cc1 [Compound 25, 3-Hydroxy-15α-[3-(4-p-tolyl-[1,2,3]triazol-1-yl)-propyl]-estra-1,3,5(10)-trien-17-one] | 49 | 85
C[C@]12CC[C@@H]3c4ccc(O)cc4CC[C@H]3[C@@H]1[C@H](CCCCn1cc(CCc3ccccc3)nn1)CC2=O [Compound 33] | 20 | 80
COc1ccc2c(c1)CC[C@H]1[C@@H]3[C@H](CCCn4cc(-c5ccccc5[N+](=O)[O-])nn4)CC(=O)[C@@]3(C)CC[C@H]21 [Compound 37] | 25 | 80
COc1ccc2c(c1)CC[C@H]1[C@@H]3[C@H](CCCn4cc(C5CC5)nn4)CC(=O)[C@@]3(C)CC[C@H]21 [Compound 41] | 23 | 77
CC(C)CCc1cn(CCCC[C@@H]2CC(=O)[C@@]3(C)CC[C@@H]4c5ccc(O)cc5CC[C@H]4[C@H]23)nn1 [Compound 48] | 21 | 73
CC(C)Cc1cn(CCCCCC[C@@H]2CC(=O)[C@@]3(C)CC[C@@H]4c5ccc(O)cc5CC[C@H]4[C@H]23)nn1 [Compound 58] | 20 | 70
COc1ccc2c(c1)CC[C@H]1[C@@H]3[C@H](CCCn4cc(-c5ccsc5)nn4)CC(=O)[C@@]3(C)CC[C@H]21 [Compound 59] | 18 | 69
COc1ccc2c(c1)CC[C@H]1[C@@H]3[C@H](CCCn4cc(-c5ccc(CO)cc5)nn4)CC(=O)[C@@]3(C)CC[C@H]21 [Compound 60] | 19 | 69
CC(C)CCc1cn(CCCCCC[C@@H]2CC(=O)[C@@]3(C)CC[C@@H]4c5ccc(O)cc5CC[C@H]4[C@H]23)nn1 [Compound 69] | 30 | 64
C[C@]12CC[C@@H]3c4ccc(O)cc4CC[C@H]3[C@@H]1[C@H](CCCCCCn1cc(-c3cccc(O)c3)nn1)CC2=O [Compound 100] | 7 | 48
COc1ccc2c(c1)CC[C@H]1[C@@H]3[C@H](CCCCn4cc(C5CC5)nn4)CC(=O)[C@@]3(C)CC[C@H]21 [Compound 111] | 4 | 43
COc1ccc2c(c1)CC[C@H]1[C@@H]3[C@H](CCCCn4cc(-c5ccc(C)cc5)nn4)CC(=O)[C@@]3(C)CC[C@H]21 [Compound 112] | 12 | 43
COc1ccc2c(c1)CC[C@H]1[C@@H]3[C@H](CCCCn4cc(CO)nn4)CC(=O)[C@@]3(C)CC[C@H]21 [Compound 122] | 5 | 38
